In patent US8304427B2, “Acylthiourea compound or salt thereof, and use thereof” (Taiho Pharmaceutical Co., Ltd., priority 2008, dated 2012):
Like-named read-outs stand apart in the source and are kept apart here. Each block holds one compound with its values, some of them ahead of it.

Columns and labels:
[1] = test system: HMEC (human skin microvascular endothelial cell); assay: Cell proliferation inhibition test against normal cells HMEC; type: cell-based; conditions: for IC50: Homo sapiens, HMEC, 72 h, read-out: IC50 HMEC; for ratio HMEC: IC50 HMEC relative to IC50 NUGC4
Method: [Worded in the source for another cell line; this cell line is reported under the same test.] (§1) The thus-prepared test compound solution was added to each well of the NUGC4 cell culture plate at 0.1 mL/well, and the plate was incubated in an incubator under 5% CO2 gas atmosphere at 37° C. for 3 days. […] Thereafter, the plate was washed with tap water and dried. Then, aqueous 0.05% Crystal Violet/20% methanol solution (product of Wako Pure Chemical Industries Ltd.) was added to each well at 100 μL/well, and the plate was left to stand at room temperature for 20 minutes, whereby cells were stained. Thereafter, the plate was washed with tap water and dried. To each well, 0.05 M NaH2PO4/ethanol (1/1=v/v) (100 μL) was added, to thereby extract Crystal Violet. The absorbance of the extracted Crystal Violet was measured at 540 nm using a microplate reader, and the absorbance was employed as an index for living cell count. […] Percent inhibition (%)=(C−T)/C×100 • T: Absorbance of well to which a test compound was added • C: Absorbance of well to which no test compound was added

c-Met [2] = biological target: T1, c-Met (Homo sapiens, UniProt P08581); assay: c-Met inhibitory assay using AlphaScreen (Method A); type: biochemical; set-up: purchased Carna bio Co., Ltd 08-051; conditions: ATP 20 μM
Method: Inhibitory activity of compounds against c-Met kinase was determined through the following procedures. Method A) c-Met inhibitory assay using AlphaScreen™
A biotinylated peptide including a phosphorylated site of Pyk2 (Tyr402), which is reported as a bio-substrate in Clin. Cancer Res. vol. […] The mixture was allowed to react at room temperature for 20 minutes. EDTA was added to the reaction mixture to a final concentration of 50 mM, to thereby terminate reaction. […] The reaction was done for one hour at room temperature. Thereafter, the fluorescence intensity from the reaction mixture was measured using a multi-label counter (EnVision™, Perkin Elmer).
Target sequence in this assay (P08581 956-1390 limits assumed): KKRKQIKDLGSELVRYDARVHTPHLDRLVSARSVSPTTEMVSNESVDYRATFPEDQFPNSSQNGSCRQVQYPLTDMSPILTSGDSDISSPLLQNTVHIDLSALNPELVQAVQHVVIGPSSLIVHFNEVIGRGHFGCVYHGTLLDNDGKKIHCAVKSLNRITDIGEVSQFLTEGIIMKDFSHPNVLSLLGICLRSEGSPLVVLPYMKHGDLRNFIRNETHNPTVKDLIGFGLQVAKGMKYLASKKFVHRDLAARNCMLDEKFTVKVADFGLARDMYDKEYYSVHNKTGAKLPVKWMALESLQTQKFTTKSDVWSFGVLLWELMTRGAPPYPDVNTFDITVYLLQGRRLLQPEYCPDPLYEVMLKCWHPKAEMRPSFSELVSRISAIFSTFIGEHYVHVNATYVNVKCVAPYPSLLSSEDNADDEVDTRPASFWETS

HCT-116 = assay: Cell proliferation inhibition test against c-Met low expressing tumor cells (HCT-116); type: cell-based; conditions: for IC50: Homo sapiens, read-out: IC50 HCT-116; for ratio HCT-116: IC50 HCT-116 relative to IC50 NUGC4
NUGC4 cells = assay: Cell-proliferation inhibitory assay against NUGC4 cells (Crystal Violet); type: cell-based; conditions: Homo sapiens, NUGC-4, 72 h; NUGC4, cancer, c-Met status (+), 3 days
Method: Cell-Proliferation Inhibitory Assay Against NUGC4 Cells (Human Gastric Cancer Cell Strain in Which c-Met is Over-Expressed and Highly Activated), In Vitro Test
NUGC4 cell suspension (in a 10% FBS-containing RPMI 1640 medium (product of Wako Pure Chemical Industries Ltd.) or a FBS-containing DMEM medium (product of Nacalai Tesque, Inc.)) was inoculated to each well of a 96-well (flat-bottom) microplate in an amount of 2×10^3 cells (0.1 mL), and the plate was incubated in an incubator under 5% CO2 gas atmosphere at 37° C. for one day. Each of the compounds of the present invention and comparative compound 1 was dissolved in dimethyl sulfoxide to a concentration of 30 mM. The solution was diluted with 10% FBS-containing RPMI 1640 or DMEM medium, to a final test compound concentration of 60, 20, 6, 2, 0.6, or 0.2 μM. The thus-prepared test compound solution was added to each well of the NUGC4 cell culture plate at 0.1 mL/well, and the plate was incubated in an incubator under 5% CO2 gas atmosphere at 37° C. for 3 days. After culturing, 25% aqueous glutaraldehyde solution (product of Nacalai Tesque, Inc.) was added to each well at 20 μL, and the plate was left to stand at room temperature for 20 minutes, whereby cells were fixed. Thereafter, the plate was washed with tap water and dried. Then, aqueous 0.05% Crystal Violet/20% methanol solution (product of Wako Pure Chemical Industries Ltd.) was added to each well at 100 μL/well, and the plate was left to stand at room temperature for 20 minutes, whereby cells were stained. Thereafter, the plate was washed with tap water and dried. To each well, 0.05 M NaH2PO4/ethanol (1/1=v/v) (100 μL) was added, to thereby extract Crystal Violet. The absorbance of the extracted Crystal Violet was measured at 540 nm using a microplate reader, and the absorbance was employed as an index for living cell count. Percent inhibition was calculated by the following equation, and the 50% inhibition test compound concentration (IC50 (μM)) was calculated. Percent inhibition (%)=(C−T)/C×100 • T: Absorbance of well to which a test compound was added • C: Absorbance of well to which no test compound was added

[3] = test system: HAOSMC (human aortic smooth muscle cell); assay: Cell proliferation inhibition test against normal cells HAOSMC; type: cell-based; conditions: for IC50: Homo sapiens, 72 h, read-out: IC50 HAOSMC; for ratio HAOSMC: IC50 HAOSMC relative to IC50 NUGC4
Method: [Worded in the source for another cell line; this cell line is reported under the same test.] as §1

c-Met [4] = biological target: T1, c-Met; assay: c-Met inhibitory assay using DeskTop Profiler (Method B); type: biochemical; set-up: made in house; conditions: ATP 43 μM
Method: Method B) c-Met Inhibitory Assay Using DeskTop Profiler
A dephosphorylation enzyme inhibitor cocktail (PhosSTOP, #4906837, product of Roche) and a protease inhibitor cocktail (Complete, Mini, EDTA-free, #1836170; product of Roche) were added to a reaction buffer (100 mM HEPES (pH: 7.5), 10 mM MgCl2, 0.003% Brij-35, 0.04% Tween, and 1 mM DTT). In the presence of the compound of the present invention, recombinant c-Met (purified product of Taiho Pharmaceutical Co., Ltd.), fluorescence-labeled c-Met substrate peptide (FL-Peptide 2, #760346, Caliper Life Sciences) (final concentration: 1.5 μM), and ATP (final concentration: 43 μM) were added thereto, and the mixture was allowed to react at 28° C. for 90 minutes. EDTA was added to the reaction mixture to a final concentration of 10 mM, to thereby terminate reaction. By use of DeskTop Profiler (#119900, Caliper Life Sciences), each fluorescence intensity of the substrate and that of the phosphorylated product was determined, whereby the amount of the formed phosphorylated product was determined. The compound concentration that realizes 50% inhibition of formation of phosphorylated product was defined as IC50 (μM), and the results are shown in the following Tables.
Target sequence in this assay (P08581 25-1390): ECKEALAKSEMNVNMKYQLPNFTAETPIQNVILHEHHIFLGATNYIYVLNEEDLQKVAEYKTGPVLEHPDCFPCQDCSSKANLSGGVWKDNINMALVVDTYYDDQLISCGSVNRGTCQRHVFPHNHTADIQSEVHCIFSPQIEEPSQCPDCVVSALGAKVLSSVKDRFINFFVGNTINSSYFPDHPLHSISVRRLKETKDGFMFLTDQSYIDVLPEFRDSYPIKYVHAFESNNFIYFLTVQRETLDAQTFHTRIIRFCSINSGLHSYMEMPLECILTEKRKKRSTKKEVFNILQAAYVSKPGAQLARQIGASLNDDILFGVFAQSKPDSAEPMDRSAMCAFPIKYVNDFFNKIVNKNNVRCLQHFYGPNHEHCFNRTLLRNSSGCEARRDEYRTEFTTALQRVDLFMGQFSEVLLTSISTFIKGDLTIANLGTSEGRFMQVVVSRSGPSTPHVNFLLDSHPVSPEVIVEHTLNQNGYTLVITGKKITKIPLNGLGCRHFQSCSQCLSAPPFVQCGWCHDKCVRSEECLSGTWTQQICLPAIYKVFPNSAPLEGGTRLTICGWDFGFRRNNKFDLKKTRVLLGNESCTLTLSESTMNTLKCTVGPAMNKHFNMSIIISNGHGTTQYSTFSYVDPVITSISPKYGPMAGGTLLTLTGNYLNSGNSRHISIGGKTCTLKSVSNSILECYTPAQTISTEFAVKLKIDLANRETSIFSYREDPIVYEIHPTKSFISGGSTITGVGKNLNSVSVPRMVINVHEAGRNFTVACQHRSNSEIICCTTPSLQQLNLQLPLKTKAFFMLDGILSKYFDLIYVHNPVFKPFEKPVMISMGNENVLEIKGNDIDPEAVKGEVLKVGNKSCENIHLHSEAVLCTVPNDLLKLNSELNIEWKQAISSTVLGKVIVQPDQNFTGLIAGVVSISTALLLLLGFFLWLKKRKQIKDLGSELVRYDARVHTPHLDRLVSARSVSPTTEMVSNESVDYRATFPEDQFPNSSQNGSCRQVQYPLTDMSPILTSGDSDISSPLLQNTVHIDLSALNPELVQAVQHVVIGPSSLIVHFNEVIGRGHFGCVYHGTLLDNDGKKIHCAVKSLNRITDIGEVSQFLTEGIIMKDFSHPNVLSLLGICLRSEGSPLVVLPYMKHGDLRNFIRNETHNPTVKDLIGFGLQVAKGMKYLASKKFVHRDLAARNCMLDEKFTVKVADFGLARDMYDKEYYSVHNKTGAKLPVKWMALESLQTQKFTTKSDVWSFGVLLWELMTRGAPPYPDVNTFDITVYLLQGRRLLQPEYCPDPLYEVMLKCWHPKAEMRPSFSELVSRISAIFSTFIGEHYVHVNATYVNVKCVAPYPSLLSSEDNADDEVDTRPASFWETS

[5] = 72 h, HCT-116, cancer, c-Met status (−), 3 days

Structure (SMILES): COc1cc2nccc(Oc3ccc(NC(=S)NC(=O)Cc4ccccc4)cc3F)c2cc1C(=O)NCC(C)(C)O [Example 24, 4-(2-Fluoro-4-(3-(2-phenylacetyl)thioureido)phenoxy)-N-(2-hydroxy-2-methylpropyl)-7-methoxyquinoline-6-carboxamide]
IC50 [1]: 16000 nM
ratio HMEC [1]: 1552
IC50 (c-Met [2]): 33 nM
IC50 (HCT-116; HCT-116, 72 h): 23000 nM
ratio HCT-116 (HCT-116): 1181
IC50 (NUGC4 cells): 20 nM
IC50 [3]: > 30000 nM
ratio HAOSMC [3]: >1552

Structure (SMILES): CNC(=O)c1cc2c(Oc3ccc(NC(=S)NC(=O)Cc4cccc(OC)c4)cc3F)ccnc2cc1OC [Example 46, 4-(2-Fluoro-4-(3-(2-(3-methoxyphenyl)acetyl)thioureido)phenoxy)-7-methoxy-N-methylquinoline-6-carboxamide]
IC50 (c-Met [4]): 85 nM

Structure (SMILES): COc1cc2nccc(Oc3ccc(NC(=S)NC(=O)Cc4ccc(F)cc4)cc3F)c2cc1C(=O)NCCN1CCOCC1 [Example 37, 4-(2-fluoro-4-(3-(2-(4-fluorophenyl)acetyl)thioureido)phenoxy)-7-methoxy-N-(2-morpholinoethyl)quinoline-6-carboxamide]
IC50 (HCT-116; [5]): > 30000 nM
ratio HCT-116 (HCT-116): >3000
IC50 (c-Met [4]): 35 nM
IC50 (NUGC4 cells): 10 nM

Structure (SMILES): COc1cc2nccc(Oc3ccc(NC(=S)NC(=O)Cc4ccccc4F)cc3F)c2cc1C(=O)NCC(C)(C)O [Example 39, 4-(2-Fluoro-4-(3-(2-(2-fluorophenyl)acetyl)thioureido)phenoxy)-N-(2-hydroxy-2-methylpropyl)-7-methoxyquinoline-6-carboxamide]
IC50 (c-Met [4]): 29 nM

Structure (SMILES): CNC(=O)c1cc2c(Oc3ccc(NC(=S)NC(=O)Cc4ccccc4)cc3Cl)ccnc2cc1OC [Example 48, 4-(2-Chloro-4-(3-(2-phenylacetyl)thioureido)phenoxy)-7-methoxy-N-methylquinoline-6-carboxamide]
IC50 (c-Met [4]): 34 nM

Structure (SMILES): CC[C@@H](CO)NC(=O)c1cc2c(Oc3ccc(NC(=S)NC(=O)Cc4ccccc4)cc3F)ccnc2cc1OC [Example 31, (S)-4-(2-Fluoro-4-(3-(2-phenylacetyl)thioureido)phenoxy)-N-(1-hydroxybutan-2-yl)-7-methoxyquinoline-6-carboxamide]
IC50 (c-Met [4]): 26 nM

Structure (SMILES): COCCNC(=O)CNC(=O)c1cc2c(Oc3ccc(NC(=S)NC(=O)Cc4ccccc4)cc3F)ccnc2cc1OC [Example 33, 4-(2-Fluoro-4-(3-(2-phenylacetyl)thioureido)phenoxy)-7-methoxy-N-(2-(2-methoxyethylamino)-2-oxoethyl)quinoline-6-carboxamide]
IC50 (c-Met [4]): 12 nM

Structure (SMILES): COc1cc2nccc(Oc3ccc(NC(=S)NC(=O)Cc4c(F)cccc4F)cc3F)c2cc1C(=O)NCC(C)(C)O [Example 45]
IC50 (c-Met [4]): 56 nM

Structure (SMILES): CC[C@@H](CO)NC(=O)c1cc2c(Oc3ccc(NC(=S)NC(=O)Cc4ccc(F)cc4)cc3F)ccnc2cc1OC [Example 38, (S)-4-(2-Fluoro-4-(3-(2-(4-fluorophenyl)acetyl)thioureido)phenoxy)-N-(1-hydroxybutan-2-yl)-7-methoxyquinoline-6-carboxamide]
IC50 (HCT-116; HCT-116, 72 h): > 30000 nM
ratio HCT-116 (HCT-116): >719
IC50 (c-Met [4]): 32 nM
IC50 (NUGC4 cells): 40 nM

Further lines, with some results ahead:

IC50 (c-Met [2]): 138 nM
IC50 (HCT-116; [5]): > 30000 nM
Structure (SMILES): CCNC(=O)N1CCC(NC(=O)c2cc3c(Oc4ccc(NC(=S)NC(=O)Cc5ccccc5)cc4F)ccnc3cc2OC)CC1 [Example 15, N-(1-(Ethylcarbamoyl)piperidin-4-yl)-4-(2-fluoro-4-(3-(2-phenylacetyl)thioureido)phenoxy)-7-methoxyquinoline-6-carboxamide]
IC50 ([1]; normal, c-Met status (−), 3 days): > 30000 nM
ratio HMEC [1]: >1584
ratio HCT-116 (HCT-116): >1584
IC50 (NUGC4 cells): 20 nM
IC50 ([3]; HAOSMC, normal, c-Met status (−), 3 days): > 30000 nM
ratio HAOSMC [3]: >1584

IC50 (c-Met [4]): 31 nM
Structure (SMILES): CCN(CC(C)(C)O)C(=O)CNC(=O)c1cc2c(Oc3ccc(NC(=S)NC(=O)Cc4ccccc4)cc3F)ccnc2cc1OC [Example 35, N-(2-(Ethyl(2-hydroxy-2-methylpropyl)amino)-2-oxoethyl)-4-(2-fluoro-4-(3-(2-phenylacetyl)thioureido)phenoxy)-7-methoxyquinoline-6-carboxamide]

IC50 (c-Met [4]): 203 nM
Structure (SMILES): CNC(=O)c1cc2c(Oc3ccc(NC(=S)NC(=O)Cc4ccc(C(F)(F)F)cc4)cc3F)ccnc2cc1OC [Example 47, 4-(2-Fluoro-4-(3-(2-(4-trifluoromethylphenyl)acetyl)thioureido)phenoxy)-7-methoxy-N-methylquinoline-6-carboxamide]

IC50 (c-Met [4]): 101 nM
Structure (SMILES): COc1cc2nccc(Oc3ccc(NC(=S)NC(=O)Cc4c(F)cccc4F)cc3F)c2cc1C(=O)NCCN1CCOCC1 [Example 44]

IC50 (c-Met [4]): 27 nM
Structure (SMILES): CC[C@@H](CO)NC(=O)c1cc2c(Oc3ccc(NC(=S)NC(=O)Cc4ccccc4F)cc3F)ccnc2cc1OC [Example 40, (S)-4-(2-Fluoro-4-(3-(2-(2-fluorophenyl)acetyl)thioureido)phenoxy)-N-(1-hydroxybutan-2-yl)-7-methoxyquinoline-6-carboxamide]

IC50 (c-Met [4]): 139 nM
Structure (SMILES): COc1cc2nccc(Oc3ccc(NC(=S)NC(=O)Cc4ccccc4)cc3F)c2cc1C(=O)N(C)C [Example 50, 4-(2-Fluoro-4-(3-(2-phenylacetyl)thioureido)phenoxy)-7-methoxy-N,N-dimethylquinoline-6-carboxamide]

IC50 (HCT-116; [5]): > 30000 nM
IC50 (c-Met [4]): 22 nM
Structure (SMILES): COc1cc2nccc(Oc3ccc(NC(=S)NC(=O)Cc4ccccc4)cc3F)c2cc1C(=O)NCC(=O)N1CCC[C@H]1CO [Example 34, (S)-4-(2-Fluoro-4-(3-(2-phenylacetyl)thioureido)phenoxy)-N-(2-(2-(hydroxymethyl)pyrrolidin-1-yl)-2-oxoethyl)-7-methoxyquinoline-6-carboxamide]
ratio HCT-116 (HCT-116): >2000
IC50 (NUGC4 cells): 20 nM

IC50 (c-Met [4]): 52 nM
Structure (SMILES): COc1cc2nccc(Oc3ccc(NC(=S)NC(=O)Cc4ccccc4)cc3F)c2cc1C(=O)NCCC(=O)N(C)C [Example 36, N-(3-(Dimethylamino)-3-oxopropyl)-4-(2-fluoro-4-(3-(2-phenylacetyl)thioureido)phenoxy)-7-methoxyquinoline-6-carboxamide]
